Source: PubChem BioAssay (NCI)
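Values below derive from 48-hour exposures of cells grown in 96-well plates, with endpoints linearly interpolated between the two concentrations bracketing the appropriate inhibition level. The concentration for full growth arrest is given as TGI.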

Legend:
Experiment in all cases: inhibition of tumour cell growth, NCI panel, 48 h
NCI-H226 lung = test system: NCI-H226 lung
MDA-N = test system: MDA-N
MCF7 breast = test system: MCF7 breast
HCT-116 colon = test system: HCT-116 colon
NCI-H460 lung = test system: NCI-H460 lung
HS 578T breast = test system: HS 578T breast
IGROV1 ovarian = test system: IGROV1 ovarian
CCRF-CEM leukemia = test system: CCRF-CEM leukemia
LOX IMVI melanoma = test system: LOX IMVI melanoma
SF-295 CNS = test system: SF-295 CNS
SF-268 CNS = test system: SF-268 CNS
MDA-MB-435 = test system: MDA-MB-435
K-562 leukemia = test system: K-562 leukemia
OVCAR-8 ovarian = test system: OVCAR-8 ovarian
HL-60(TB) leukemia = test system: HL-60(TB) leukemia
SK-MEL-28 melanoma = test system: SK-MEL-28 melanoma
OVCAR-3 ovarian = test system: OVCAR-3 ovarian
COLO 205 colon = test system: COLO 205 colon
OVCAR-4 ovarian = test system: OVCAR-4 ovarian
A498 renal = test system: A498 renal

| Compound | TGI (NCI-H226 lung) [µM] | TGI (MDA-N) [µM] | TGI (MCF7 breast) [µM] | TGI (HCT-116 colon) [µM] | TGI (NCI-H460 lung) [µM] | TGI (HS 578T breast) [µM] | TGI (IGROV1 ovarian) [µM] | TGI (CCRF-CEM leukemia) [µM] | TGI (LOX IMVI melanoma) [µM] | TGI (SF-295 CNS) [µM] | TGI (SF-268 CNS) [µM] | TGI (MDA-MB-435) [µM] | TGI (K-562 leukemia) [µM] | TGI (OVCAR-8 ovarian) [µM] | TGI (HL-60(TB) leukemia) [µM] | TGI (SK-MEL-28 melanoma) [µM] | TGI (OVCAR-3 ovarian) [µM] | TGI (COLO 205 colon) [µM] | TGI (OVCAR-4 ovarian) [µM] | TGI (A498 renal) [µM] |
| --- | --- | --- | --- | --- | --- | --- | --- | --- | --- | --- | --- | --- | --- | --- | --- | --- | --- | --- | --- | --- |
| O=S(Nc1ccccc1)c1cccc(Cl)c1 (stereo not given) | > 100 | > 100 | > 100 | > 100 | > 100 | > 100 | > 100 | > 100 | > 100 | > 100 | > 100 | > 100 | > 100 | > 100 | > 100 | > 100 | > 100 | > 100 | – | – |
| CCOP(=O)(OCC)C(Nc1ccc(Br)cc1)c1cccc([N+](=O)[O-])c1 (stereo not given) | 38.3 | 37.2 | – | 25.6 | 29.3 | 61.1 | 76.5 | 49.1 | 23.3 | 28.3 | 43.6 | 36.7 | 38.6 | > 100 | 55.1 | 60 | 35.6 | 26 | > 100 | 31.1 |
| COc1cc(OC)nc(-n2c(N)c(C#N)c3ccc([N+](=O)[O-])cc3c2=O)n1 | – | > 100 | > 100 | > 100 | > 100 | > 100 | > 100 | > 100 | > 100 | > 100 | > 100 | > 100 | – | > 100 | > 100 | > 100 | > 100 | > 100 | > 100 | > 100 |
| CCCCCCCCCCCCCCCCOCC(CC(F)(F)P(=O)(OCC)OCC)OC(C)=O (stereo not given) | 28.7 | 31.6 | 33.5 | 17 | 26.3 | – | 21.8 | – | – | 24.4 | 27.5 | 33.9 | 48.9 | – | – | 32.4 | 31.4 | 32.5 | 29.3 | 25.8 |
| CC(C)(C)OC(=O)N1CCC(C(=O)O)CC1 | – | > 100 | > 100 | > 100 | > 100 | > 100 | > 100 | > 100 | > 100 | > 100 | > 100 | > 100 | – | > 100 | > 100 | > 100 | > 100 | > 100 | > 100 | > 100 |
| CCOC(=O)Cn1c(=O)c2nc(SC)sc2n(CC)c1=S | > 100 | > 100 | > 100 | > 100 | > 100 | 95.8 | > 100 | > 100 | > 100 | > 100 | > 100 | 3.2 | > 100 | > 100 | > 100 | > 100 | > 100 | > 100 | > 100 | – |
| CC(C)OCC1CC(CC(=O)Nc2nncs2)C(=O)O1 (stereo not given) | > 100 | > 100 | > 100 | > 100 | > 100 | > 100 | > 100 | > 100 | > 100 | > 100 | > 100 | > 100 | > 100 | > 100 | – | > 100 | > 100 | > 100 | > 100 | – |
| Cc1nn(C(=O)c2ccc(Cl)cc2)c2c1C(c1ccccc1[N+](=O)[O-])SC(N)=N2 (stereo not given) | > 10 | > 10 | > 10 | > 10 | > 10 | > 10 | > 10 | > 10 | > 10 | > 10 | > 10 | > 10 | > 10 | > 10 | > 10 | – | > 10 | > 10 | > 10 | – |
| CCOC(=O)c1cn2c(n1)sc1c(Cl)c(Cl)ccc12 | 51.6 | 3.83 | > 100 | 33 | > 100 | 28.6 | > 100 | > 100 | > 100 | > 100 | > 54.9 | 12.6 | > 46.9 | > 66 | – | > 100 | > 58.1 | 19.1 | > 100 | > 100 |
| Cc1ccc(N(C(=O)Nc2ccccc2)C2=NCC(C)S2)cc1C (stereo not given) | – | 31.9 | 71.9 | 46.5 | 44.6 | 77.4 | 89.8 | 50.6 | 30.3 | 85.3 | 69.8 | – | > 100 | 91.2 | 63.7 | 31.2 | 32 | 41.6 | > 100 | 47.9 |
